In patent publication US8158389B2, “Products and methods for in vivo secretion of monatin” (priority 2005, dated 2012):
Marks after values point to notes of the source that are not given here.

What was measured:
[1] = test system: C. glutamicum ATCC 13032 transformed with aspCProA pEKEX-2; test: Monatin efflux with biotin and ampicillin treatments; type: cell-based, Corynebacterium glutamicum
Description: C. glutamicum ATCC 13032 strains transformed with aspCProA pEKEX-2 were grown overnight in LB medium supplemented with 50 μg/mL kanamycin incubated at 30° C. and shaking at 250 rpm. […] Microbiol 151:342-347, (1989). […] The pH was adjusted to 7.0.
Additions of 1.0 g L-tryptophan and 5 g/L sodium pyruvate and ampicillin (either 0 or 10 μg/ml) were made 3 hours following induction.

[2] = test system: C. glutamicum 13032::aspC/proA/pEKEX2-2; test: Monatin excretion using ethambutol; type: cell-based, Corynebacterium glutamicum
Description: (§1) Microbiol 151:342-347, (1989). […] The pH was adjusted to 7.0.
Conditions for the treatments included 30° C. throughout the experiment and 250 rpm agitation. Ethambutol (10 mg/L) was added either prior to inoculation of shake flasks or at the first feeding time when tryptophan and pyruvate were added. […] Additions of 1 g L-tryptophan, 10 g/L sodium pyruvate, 0.04 mM pyridoxal-5′-phosphate (“PLP”), were made 3 hours following induction.

[3] = test system: E. coli MG1655 ΔAcrAB 6-16::aspCproAproNde; test: AcrAB k.o. validation: growth (OD 600 nm) with novobiocin / sodium decanoate, knockout strain; type: cell-based, Escherichia coli
Description: (§2) Single chloramphenicol-resistant colonies were purified by restreaking on appropriate selective media and single colonies were tested by PCR as previously described for the BW25113 knockout strains, to verify the presence of the emrB and acrAB knockouts. The effects of the emrB and acrAB knockouts on the EmrAB and AcrAB transporter systems respectively were determined by assessing the phenotype of the transport mutants using appropriate antibiotics and comparison to wild type control microorganisms as shown in Table 3.1 and Table 3.2 below.

[4] = test system: E. coli MG1655::aspCproApProNde (control); test: AcrAB k.o. validation: growth (OD 600 nm) with novobiocin / sodium decanoate, control strain; type: cell-based, Escherichia coli
Description: as §2

[5] = test system: C. glutamicum 13032 transformed with aspCProA pEKEX-2; test: Monatin efflux with increased temperature and sodium pyruvate; type: cell-based, Corynebacterium glutamicum
Description: as §1
Conditions for treatments included 30° or 35° C. throughout the experiment and 250 rpm agitation. At an OD600 nm, between 0.45-0.51, induction of the monatin operon genes was initiated. […] Additions of 1.0 g L-tryptophan, 10 or 15 g/L sodium pyruvate, 0.04 mM pyridoxal-5′-phosphate (“PLP”), were made 3 hours and also at 24 hours following induction. A total of 20 or 30 g/L sodium pyruvate was added to each flask by adding 10 or 15 g/l at each of the two feeding times.

[6] = Ampicillin 10 μg/mL, Biotin 1 μg/L
[7] = Ampicillin 10 μg/mL, Biotin 200 μg/L
[8] = Biotin 200 μg/L, Ampicillin 0 μg/mL
[9] = ethambutol 10 mg/L with 0.2% Tween 20 and 10 μg/ml ampicillin, n = 2
[10] = ethambutol 10 mg/L, another 10 g/L sodium pyruvate at 24 hours, n = 2
[11] = 40 or 80 ppm novobiocin, no sodium decanoate
[12] = novobiocin 40 ppm, sodium decanoate 0 mM
[13] = novobiocin 40 ppm, sodium decanoate 2.5 mM
[14] = novobiocin 80 ppm, sodium decanoate 0 mM
[15] = novobiocin 80 ppm, sodium decanoate 2.5 mM

In the case of `CC1(C)S[C@@H]2[C@H](NC(=O)[C@H](N)c3ccccc3)C(=O)N2[C@H]1C(=O)O` [Ampicillin, ampicillin], the “Monatin/dry cell weight, 24 hours” value [1, 6] is reported as 16.2 mg/g, the “Monatin/dry cell weight, 48 hours” value [1, 6] is reported as 13.5 mg/g and the “Monatin/dry cell weight, 24 hours” value [1, 7] is reported as 12.1 mg/g. For the same molecule, the “Monatin/dry cell weight, 48 hours” value [1, 7] was 9.3 mg/g.
With `O=C(O)CCCC[C@@H]1SC[C@@H]2NC(=O)N[C@@H]21` [Biotin, biotin] the “Monatin/dry cell weight, 48 hours” value ([1]; Biotin 1 μg/L, Ampicillin 0 μg/mL) was 4.5 mg/g, the “Monatin/dry cell weight, 24 hours” value ([1]; Biotin 1 μg/L, Ampicillin 0 μg/mL, n = 1) was 1.9* mg/g and the “Monatin/dry cell weight, 24 hours” value [1, 8] was 0.9 mg/g. For the same molecule, the “Monatin/dry cell weight, 48 hours” value [1, 8] was 1.7 mg/g.
In the case of `CC[C@@H](CO)NCCN[C@@H](CC)CO` [ethambutol], the “greater monatin excreted per dry cell weight” value ([2]; Tween/ampicillin treatment with 10 mg/L ethambutol vs same treatment without ethambutol, 48 hours) is reported as 12 fold, the “Monatin/dry cell weight, 24 hours” value [2, 9] is reported as 6.94 mg/g and the “Monatin/dry cell weight, 30 hours” value [2, 9] is reported as 8.80 mg/g. The “Monatin/dry cell weight, 48 hours” value [2, 9] was 9.14 mg/g, the “Monatin/dry cell weight, 24 hours” value [2, 10] was 1.04 mg/g and the “Monatin/dry cell weight, 31 hours” value [2, 10] was 1.53 mg/g. The “Monatin/dry cell weight, 48 hours” value [2, 10] was 2.19 mg/g, the “Monatin/dry cell weight, 24 hours” value ([2]; ethambutol 10 mg/L, n = 2) was 1.16 mg/g and the “Monatin/dry cell weight, 31 hours” value ([2]; ethambutol 10 mg/L, n = 2) was 1.15 mg/g. For the same molecule, the “Monatin/dry cell weight, 48 hours” value ([2]; ethambutol 10 mg/L, n = 2) was 1.06 mg/g.
In the case of `CO[C@@H]1[C@@H](OC(N)=O)[C@@H](O)[C@H](Oc2ccc3c(O)c(NC(=O)c4ccc(O)c(CC=C(C)C)c4)c(=O)oc3c2C)OC1(C)C` [novobiocin], the growth [3, 11] is reported as “growth is completely inhibited”, the “OD 600 nm at 19 hours” value [3, 12] is reported as 0.007 and the “OD 600 nm at 19 hours” value [3, 13] is reported as 0.008. For the same molecule, the “OD 600 nm at 19 hours” value [3, 14] was 0.006, the “OD 600 nm at 19 hours” value [3, 15] was 0.008 and the growth ([4]; 0, 40 or 80 ppm novobiocin, in the presence of sodium decanoate) was “grew to similar optical densities”. The growth [4, 11] was “only slight inhibition of growth”, the “OD 600 nm at 19 hours” value [4, 12] was 1.407 and the “OD 600 nm at 19 hours” value [4, 13] was 1.395. For the same molecule, the “OD 600 nm at 19 hours” value [4, 14] was 0.793 and the “OD 600 nm at 19 hours” value [4, 15] was 1.374.
`CC(=O)C(=O)[O-].[Na+]` [pyruvate, sodium pyruvate] was tested, and the “Monatin/dry cell weight, 24 hours” value ([5]; 30° C., 20 g/L pyruvate) was 0.2 mg/g, the “Monatin/dry cell weight, 31 hours” value ([5]; 30° C., 20 g/L pyruvate) was 2.1 mg/g and the “Monatin/dry cell weight, 48 hours” value ([5]; 30° C., 20 g/L pyruvate) was 2.7 mg/g. The “Monatin/dry cell weight, 54 hours” value ([5]; 30° C., 20 g/L pyruvate) was 2.7 mg/g, the “Monatin/dry cell weight, 24 hours” value ([5]; 30° C., 30 g/L pyruvate) was 0.3 mg/g and the “Monatin/dry cell weight, 31 hours” value ([5]; 30° C., 30 g/L pyruvate) was 1.8 mg/g. The “Monatin/dry cell weight, 48 hours” value ([5]; 30° C., 30 g/L pyruvate) was 4.3 mg/g, the “Monatin/dry cell weight, 54 hours” value ([5]; 30° C., 30 g/L pyruvate) was 4.7 mg/g and the “Monatin/dry cell weight, 24 hours” value ([5]; 35° C., 20 g/L pyruvate) was 5.4 mg/g. For the same molecule, the “Monatin/dry cell weight, 31 hours” value ([5]; 35° C., 20 g/L pyruvate) was 14.7 mg/g, the “Monatin/dry cell weight, 48 hours” value ([5]; 35° C., 20 g/L pyruvate) was 23.5 mg/g and the “Monatin/dry cell weight, 54 hours” value ([5]; 35° C., 20 g/L pyruvate) was 23.8 mg/g. For the same molecule, the “Monatin/dry cell weight, 24 hours” value ([5]; 35° C., 30 g/L pyruvate) was 5.8 mg/g, the “Monatin/dry cell weight, 31 hours” value ([5]; 35° C., 30 g/L pyruvate) was 18.1 mg/g and the “Monatin/dry cell weight, 48 hours” value ([5]; 35° C., 30 g/L pyruvate) was 29.4 mg/g. For the same molecule, the “Monatin/dry cell weight, 54 hours” value ([5]; 35° C., 30 g/L pyruvate) was 35.2 mg/g.
